# Measured values as given in patent US9220264B2, “Multimeric forms of antimicrobial peptides” (Singapore Health Services Pte Ltd., priority 2008, dated 2015).
# Bridge positions count the residues as written; N and C are the ends. Peptide text beside a SMILES is read from it. I, II: the chains in the order shown.
# Legend:
# [1] = tested on: LPS; test: Competitive inhibition assay: effect of exogenous LPS on inhibitory activity; assay type: cell-based; conditions: peptide at 1×MIC in MHB; compared to B2088; FIG. 10(C)
# Method: Effect of LPS and Mg^2+ on MIC: To examine the interaction of peptide and LPS, the concentration of the latter was added exogenously from (0.001-100 mg/ml) in MHB at a peptide concentration of 1×MIC. The % inhibition was estimated and the amount of LPS required for 50% of antibacterial activity (IC50) was determined.
# [2] = tested on: P. aeruginosa; test: Time-kill kinetics assay; assay type: cell-based, Pseudomonas aeruginosa; conditions: both Pseudomonas strains; 1× and 2×MIC; USP phosphate buffer pH 7.2; 35° C.; FIG. 12
# Method: The kinetics of bactericidal action was performed by the assay reported before. Briefly, few colonies of overnight grown P. aeruginosa strains were collected from tryptic soy agar plate and suspended in US pharmacopeia phosphate buffer (pH 7.2). The suspension was adjusted to an initial inoculum of 10^6 CFU/mL and incubated with various concentrations of B2088 and B2088—99 at 35° C. 0.1 ml aliquots were withdrawn at various time intervals, diluted 10^2-10^4 fold using the same buffer, plated on tryptic soy agar plates and incubated at 35° C. The colonies were counted after 24 h incubation and expressed as CFU/ml. Buffer without peptides served as a positive control and % bacterial viability is estimated using the following equation: Bacterial viability=1−(CFU/mL)peptide/(CFU/mL)control*100
# [3] = tested on: P. aeruginosa ATCC 9027; test: Outer membrane (OM) permeability assay (NPN uptake); assay type: cell-based, Pseudomonas aeruginosa; conditions: 5 mM HEPES buffer pH 7.2; 10 μM NPN; FIG. 13
# Method: The membrane impermeable probe N-phenyl-1-naphthyl amine (NPN) was used to probe the OM permeability of peptides. An overnight culture of P. aeruginosa ATCC 9027 was harvested by centrifugation (3000 rpm, 4° C.). The pellet was washed 2 times and resuspended in 5 mM HEPES buffer (pH 7.2) to OD600 of 0.4. The cells were placed in a 10 mm stirred cuvette and NPN was added to a final concentration of 10 μM. Appropriate concentrations of B2088 was added and the increase in fluorescence intensity was monitored on a Quanta Master fluorescence spectrophotometer (Photon Technology International, New Jersey, USA). The excitation and emission wavelengths were set at 350 and 410 nm with slid widths at 2 and 5 nm, respectively. The % NPN uptake was calculated relative to the increase in NPN fluorescence intensity after the addition of 50 μM polymyxin B.
# The peptide concentration required to cause 50% increase in the NPN fluorescence intensity (PC50) was measured.
# [4] = tested on: Kp ATCC 10031; assay type: cell-based, Klebsiella pneumoniae; conditions: ATCC 10031, 24 h
# Method: The minimum inhibitory concentration (MIC) was determined using a broth microdilution method. Different strains of bacterial cells were grown in Mueller Hinton Broth (MHB) overnight. 100 μl of adjusted inoculum in MHB was added to 100 μl of each dilution of peptide or antibiotics dissolved in the broth, so as to yield a final cell density of 10^5 to 10^6 cfu/ml in each well of a microtitre plate. Additional microtitre plates may be used as necessary, if more wells are required for the assay or duplicate plates are required. The microtitre plates were incubated at 35° C. for 24 h and the absorbance at 600 nm (OD600) was monitored every 30 minutes. […] A positive control well contained the broth and organisms (no peptides/antibiotics), and a negative control well contains only the broth. The MIC of peptides for each clinical isolate or reference organism was recorded as the lowest concentration of peptide/antibiotic that inhibited visible growth of the test organism. […]
# [5] = tested on: PA 28753; test: Bacterial viability assay (ED50); assay type: cell-based, Pseudomonas aeruginosa; conditions: 10 mM phosphate buffer; 37° C.; 22 h; read-out: ED50 (Effective dose to kill 50% of bacterial cells)
# Method: (§1) Cell viability was conducted for two Gram-negative bacteria (Pa 9027 and Pa 27853). The cultures were grown overnight on trypticase soy (TS) agar and a few isolated colonies were inoculated to achieve a turbidity equivalent to 0.5 McFarland standard. The cell concentration was adjusted to 10^6 CFU/ml with 10 mM phosphate buffer and separated into different tubes to get final concentration of 10^5 CFU/ml. The peptides were added to the individual tubes to obtain concentrations of ⅛ MIC, ¼ MIC, ½ MIC, 1 MIC, 2 MIC and 4 MIC. The tubes were incubated at 37° C. for 22 h. Serial dilution was performed and 100 μL of the suspension was aliquot onto Mueller Hinton Agar (MHA) plate. The plates were incubated for 24 h at 37° C. for colony counting. Positive control was performed at Oh and 22h.
# [6] = tested on: PA 9027; test: Bacterial viability assay (ED50); assay type: cell-based, Pseudomonas aeruginosa
# Method: as §1
# [7] = tested on: Clinical Cadida albicans DF2672R Source: Urine; assay type: cell-based, Candida albicans
# Method: (§2) MICs was determined by broth macrodilution method modified from that described by the National Committee for Clinical Laboratory Standards (NCCL). The Mueller Hinton Broth (MHB) at ⅙ strength and without addition of Ca^2+ and Mg^2+ was used for dilution. Serial twofold dilutions of V2 dimer solution was prepared in MHB (⅙ strength) in test tubes. 1 ml of inoculum of test organisms in MHB (⅙ strength) was added to 1 ml of each dilution of V2 dimer to yield as final concentration of 10^4 to 10^5 colony forming units/ml in each test tube. The tubes were incubated at 35° C. for 16 to 20 hours. A positive control containing only the broth and organism, and a negative control tube containing only the broth were also incubated in parallel to the test samples. The above was repeated for each different test organism in separate experiments. The MIC of V2 dimer peptide for each clinical isolate or reference organism was read as the lowest concentration of peptide that inhibited visible growth of the test organism.
# (§3) The MIC was also determined for other peptides and compared to gentamicin.
# [8] = tested on: human conjunctival epithelial cells; assay type: cell-based
# Method: The results are from four independent experiments and data points show the mean and standard deviations. The X axis indicates the peptide concentration in μg/ml and the Y axis indicates the % cell viability. The cytotoxicity of V2 dimer were tested against human conjunctival cells according to the method described in WO 2007/126392 and compared with native hBD3. […] Wildtype hBD3 was cytotoxic at concentrations of about 15 μg/ml, however, the V2 dimer was not cytotoxic at concentrations of 100 μg/ml.
# [9] = tested on: Methicillin-resistant staphylococcus aureus (MRSA) DM09808R Source: Eye; assay type: cell-based; conditions: Methicillin-resistant DM09808R Source: Eye
# Method: as §2, §3
# [10] = tested on: Clinical Pseudomonas aeruginosa PAE 249 DM15013 Source: Wound; assay type: cell-based; conditions: Clinical PAE 249 DM15013 Source: Wound
# Method: as §2, §3
# [11] = tested on: Clinical Pseudomonas aeruginosa PAE 230 DR4877/07 Source: Sputum; assay type: cell-based; conditions: Clinical PAE 230 DR4877/07 Source: Sputum
# Method: as §2, §3
# [12] = tested on: Clinical Pseudomonas aeruginosa PAE 239 DM5790/07 Source: Wound; assay type: cell-based; conditions: Clinical PAE 239 DM5790/07 Source: Wound
# Method: as §2, §3
# [13] = tested on: Clinical Pseudomonas aeruginosa DM 023155 Source: Eye; assay type: cell-based; conditions: Clinical DM 023155 Source: Eye
# Method: as §2, §3
# [14] = tested on: Fusarium solani ATCC 36031; assay type: cell-based
# Method: as §2, §3
# [15] = tested on: Clinical Pseudomonas aeruginosa PAE 240 DU14476/07 Source: Urine; assay type: cell-based; conditions: Clinical PAE 240 DU14476/07 Source: Urine
# Method: as §2, §3
# [16] = tested on: Clinical Escherichia coli DU46381R Source: Urine; assay type: cell-based
# Method: as §2, §3
# [17] = tested on: Pseudomonas aeruginosa ATCC 27853; assay type: cell-based
# Method: as §2, §3
# [18] = tested on: Clinical Pseudomonas aeruginosa 07DM023376 Source: Eye; assay type: cell-based; conditions: Clinical 07DM023376 Source: Eye
# Method: as §2, §3
# [19] = tested on: Candida albicans ATCC10231; assay type: cell-based
# Method: as §2, §3
# [20] = tested on: Escherichia coli ATCC25922; assay type: cell-based
# Method: as §2, §3
# [21] = tested on: Clinical Staphylococcus aureus DM4001 Source: Eye; assay type: cell-based
# Method: as §2, §3
# [22] = tested on: Clinical Escherichia coli DB16027 Source: Blood; assay type: cell-based; conditions: Clinical DB16027 Source: Blood
# Method: as §2, §3
# [23] = tested on: Clinical Pseudomonas aeruginosa 07DM 023257 Source: Eye; assay type: cell-based; conditions: Clinical 07DM 023257 Source: Eye
# Method: as §2, §3
# [24] = tested on: Bacillus cereus ATCC 11778; assay type: cell-based
# Method: as §2, §3
# [25] = tested on: Clinical Pseudomonas aeruginosa DM 023104 Source: Eye; assay type: cell-based; conditions: Clinical DM 023104 Source: Eye
# Method: as §2, §3
smiles,measurement,setting,value
"N=C(N)NCCC[C@H](NC(=O)CNC(=O)CNC(=O)[C@H](CCCCN)NC(=O)[C@H](CCCNC(=N)N)NC(=O)CNC(=O)[C@@H](N)CCCNC(=N)N)C(=O)N[C@@H](CCCNC(=N)N)C(=O)NCCCC[C@H](NC(=O)[C@H](CCCNC(=N)N)NC(=O)[C@H](CCCNC(=N)N)NC(=O)CNC(=O)CNC(=O)[C@H](CCCCN)NC(=O)[C@H](CCCNC(=N)N)NC(=O)CNC(=O)[C@@H](N)CCCNC(=N)N)C(=O)N[C@@H](CCCCN)C(=O)O [B2088_99, (RGRKGGRR)2KK] (I: H-RGRKGGRRKK-OH / II: H-RGRKGGRR; amide I:9-II:C; N-terminus assumed)",concentration of LPS to suppress the inhibitory activity,[1],higher concentration of LPS
same,kill kinetics,[2],faster kill kinetics
same,PC50 (peptide concentration to cause 50% increase in NPN fluorescence intensity),[3],higher than B2088
same,Minimum inhibitory concentration (MIC),[4],1.5 µM
same,EC50,[5],480 ± 30 nM
same,EC50,"[6]; 10 mM phosphate buffer, 37° C., 22 h, read-out: ED50 (Effective dose to kill 50% of bacterial cells)",330 ± 50 nM
same,ED50 compared with B2088,"[6]; Pa 9027 and Pa 27853, Table 22 and FIG. 11",two times lower
"CC(C)[C@H](NC(=O)[C@H](CCCCN)NC(=O)[C@H](CCCNC(=N)N)NC(=O)CNC(=O)[C@@H](N)CCCNC(=N)N)C(=O)N[C@H](C(=O)N[C@@H](CCCNC(=N)N)C(=O)N[C@@H](CCCNC(=N)N)C(=O)NCCCC[C@H](NC(=O)[C@H](CCCNC(=N)N)NC(=O)[C@H](CCCNC(=N)N)NC(=O)[C@@H](NC(=O)[C@@H](NC(=O)[C@H](CCCCN)NC(=O)[C@H](CCCNC(=N)N)NC(=O)CNC(=O)[C@@H](N)CCCNC(=N)N)C(C)C)C(C)C)C(=O)N[C@@H](CCCCN)C(=O)O)C(C)C [V2 dimer, (SEQ ID NO: 44)2KK] (I: H-RGRKVVRRKK-OH / II: H-RGRKVVRR; amide I:9-II:C)",MIC,[7],12.5 µg/mL
same,cytotoxicity in comparison with native hBD3,[8],does not show cytotoxicity
same,MIC,[9],12.5 µg/mL
same,MIC,[10],6.25 µg/mL
same,MIC,[11],12.5 µg/mL
same,MIC,[12],12.5 µg/mL
same,MIC,[13],12.5 µg/mL
same,MIC,[14],25 µg/mL
same,MIC,[15],6.25 µg/mL
same,MIC,[16],6.25 µg/mL
same,MIC,[17],12.5 µg/mL
same,MIC,[18],12.5 µg/mL
same,MIC,[19],12.5 µg/mL
same,MIC,[20],12.5 µg/mL
same,MIC,[21],12.5 µg/mL
same,MIC,[22],6.25 µg/mL
same,MIC,[23],12.5 µg/mL
same,MIC,[24],12.5 µg/mL
same,MIC,[25],12.5 µg/mL
same,Minimum inhibitory concentration (MIC),[4],1.4 µM
